Experimental data from patent publication US11026932B2, “Medicinal composition for preventing or treating inflammatory respiratory disease” (NATIONAL UNIVERSITY CORPORATION OKAYAMA UNIVERSITY, priority 2015, dated 2021).

How the values were obtained:
[1] = compared to a known RXR full agonist; cited from earlier work
[2] = system: emphysema model mice; experiment: Emphysema model mice (intratracheal swine pancreatic elastase), evaluation of drug efficacy; type: in vivo, female BALB/c mice
Procedure: <Preparation of Emphysema Mice and Evaluation of Drug Efficacy>
Emphysema mice were prepared in accordance with the following procedures described and used for evaluation of drug efficacy.
Under anesthesia by pentobarbital or isoflurane administration, female BALB/c mice were intratracheally administered with swine pancreatic elastase to prepare (day 0) emphysema models.
Control mice were fed with a food containing bexarotene as an existing RXR full agonist.
On Days 4 and 14, the mice underwent tracheotomy again under anesthesia by pentobarbital or xylazine-ketamine administration, followed by insertion of an endotracheal tube, and static lung compliance was measured using a respiratory function measuring equipment ([…], SIREQ Inc.) for evaluating emphysematous alteration. Static lung compliance is an indication of extensibility of a lung tissue, and static lung compliance is increased in emphysema which is a disease associated with tissue destruction in an alveolar region.
After the procedure 3, the mice were euthanized by exsanguination. After bronchoalveolar lavage, a lung tissue was removed for evaluating emphysema.
The data obtained was analyzed by Anova significance test, in which p<0.05 to an untreated non-emphysema group was indicated by “*”. Furthermore, P<0.05 to an untreated emphysema group was indicated by “#”.

[3] = system: bronchial asthma model mice; experiment: Bronchial asthma model mice (OVA sensitization and inhaled OVA exposure), evaluation of drug efficacy; type: in vivo, female BALB/c mice; conditions: compared with the untreated group
Procedure: <Preparation of Bronchial Asthma Mice and Evaluation of Drug Efficacy>
Bronchial asthma mice were prepared and used for evaluation of drug efficacy in accordance with the following procedures.
Female BALB/c mice were systemically sensitized by intraperitoneal administration of ovalbumin (OVA) ([…] of OVA emulsified in 2.25 mg aluminum hydroxide in a total volume of 100 μL) on Day 0 and Day 14, and then was exposed to inhaled OVA by an ultrasonic nebulizer (for 20 min, 3 days: Days 28 to 30), to induce asthma reaction.
From Day 25, the mice were fed with a food containing an RXR agonist (NEt-4IB). On Day 32, the mice underwent tracheotomy under anesthesia by pentobarbital administration, followed by insertion of an endotracheal tube. After the tube was connected to a respiratory function measuring equipment, an airway hyperreactivity (airway resistance) was determined for evaluating airway constriction.
Forty eight hours after the last OVA inhalation exposure, airway hyperreactivity in the mice with an endotracheal tube was measured using a respiratory function measuring equipment (Flexivent, SIREQ Inc.). Here, airway hyperreactivity was induced by inhalation of methacholine.
After the procedure 2, the mice were euthanized by exsanguination. After bronchoalveolar lavage, a lung tissue was removed for evaluating an airway tissue.
Also, for a group fed with a common food as an untreated group, an asthma reaction was induced in the same way for determination of airway hyperreactivity and evaluation of airway inflammation.
Two groups which were not sensitized by an OVA and only exposed to inhaled OVA as non-asthma control groups (an RXR agonist medicated feed group and a common feed group) were also evaluated for airway hyperreactivity and airway inflammation in the same way.
The data obtained was analyzed by Anova significance test, in which p<0.01 and p<0.05 to an untreated non-asthma group were indicated by “**” and “*”, respectively. Furthermore, P<0.05 to an untreated asthma group was indicated by “#”.

[4] = emphysema model mice, 4 days after elastase administration, compared with drug non-administration group

CCN(c1ccc(C(C)C)c(OCC(C)C)c1)c1ccc(C(=O)O)cn1 [NEt-3IB]
increase in triglyceride [1]: reduces increase in triglyceride

CCN(c1ccc(OCC(C)C)c(C(C)C)c1)c1ccc(C(=O)O)cn1 [NEt-4IB]
static lung compliance ([2]; emphysema model mice fed food containing compound from Day -4, measured Days 4 and 14, compared with the untreated group): significant improvement | macrophages in cell fraction of bronchoalveolar lavage fluid [2, 4]: significantly reduced | total cell number in cell fraction of bronchoalveolar lavage fluid [2, 4]: significantly reduced | neutrophil number in cell fraction of bronchoalveolar lavage fluid ([2]; emphysema model mice, 4 days after elastase administration, compared with the untreated group): reduction | effect on bronchoalveolar lavage cell numbers compared with the RXR full agonist bexarotene ([2]; emphysema model mice, 4 days after elastase administration, total cell number and macrophages): remarkably higher | average interalveolar distance in lung tissue (emphysematous alteration) ([2]; emphysema model mice, formalin-fixed, HE-stained lung tissue, compared with the untreated group): improvement in emphysematous alteration | anti-inflammatory effect ([2]; emphysema model or bronchial asthma model, repeated oral administration (summary statement)): significant anti-inflammatory effect | IL-5 in supernatant of bronchoalveolar lavage fluid ([3]; ELISA): inhibition | IL-13 in supernatant of bronchoalveolar lavage fluid ([3]; ELISA): inhibition | inflammatory cell infiltration in a local site of the airway, histopathological investigation of the lung tissue ([3]; HE staining): improvement in inflammatory cell infiltration | eosinophil number in cell fraction of bronchoalveolar lavage fluid [3]: reduction | lymphocyte number in cell fraction of bronchoalveolar lavage fluid [3]: reduction | total cell number in cell fraction of bronchoalveolar lavage fluid [3]: reduction
